SMILES strings stand for the structures.

In general, IC50 refers to the concentration that gives 50% inhibition.

For one experiment, the target named is T1, human CD73 (Homo sapiens, UniProt P21589).
T1 construct: expressed in transfected cells
T1 sequence (P21589 27-549): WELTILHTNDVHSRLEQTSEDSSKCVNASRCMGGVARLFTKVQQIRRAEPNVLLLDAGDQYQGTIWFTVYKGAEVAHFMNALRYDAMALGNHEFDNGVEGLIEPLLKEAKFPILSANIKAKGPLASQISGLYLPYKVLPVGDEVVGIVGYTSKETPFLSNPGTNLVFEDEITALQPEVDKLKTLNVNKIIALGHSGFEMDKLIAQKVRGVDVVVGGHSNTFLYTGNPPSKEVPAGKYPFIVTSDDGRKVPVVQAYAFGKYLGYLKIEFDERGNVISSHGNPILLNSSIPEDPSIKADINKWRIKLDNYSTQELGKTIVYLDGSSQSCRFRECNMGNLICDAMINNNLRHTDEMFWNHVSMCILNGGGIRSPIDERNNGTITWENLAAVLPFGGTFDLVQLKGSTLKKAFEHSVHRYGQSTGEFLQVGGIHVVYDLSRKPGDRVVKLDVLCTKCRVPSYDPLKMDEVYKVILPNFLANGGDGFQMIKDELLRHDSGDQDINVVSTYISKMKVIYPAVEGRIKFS
Nature of the experiment: Inhibitor activity against CD73 in cell based assay (CD73 expressing CHO-K1 cells). Conditions: CHO-K1 cells expressing human CD73, 150 μM AMP, 4 hours of incubation; read-out: CHO-K1 CELL_VARIANT: CD73 IC50. Here is the method: Determine Inhibitor Activity Against CD73 in Cell Based Assay
CD73 expressing CHO-K1 cell clones were generated upon stable transfection of a plasmid expressing human CD73 under the control of CMV promoter. Cells were selected in Ham's F-12K (Kaighn's) media supplemented with 10% fetal bovine serum and 1 mg/ml G418 at 37° C. in a humidified incubator supplied with 5% CO2. The assays were performed as follows. Cells were seeded in a 96 well plate in 50 μL of culture media at a density of 1×10^4 per well. Compound at a maximal concentration of 5 mM was serially diluted 1:3 in DMSO for a total of 8 point titration. A 2 μL aliquot of each dilution point was added to […] culture media and 25 µL was added to each well, providing 10 μM compound at the maximum concentration point. AMP was diluted in culture media and 25 μL was added to each well with a final concentration of 150 μM. 4 wells containing 0.2% DMSO treated cells and AMP served as high controls and 4 wells containing media only with 0.2% DMSO and AMP served as low controls. After 4 hours of incubation, 20 μL of the supernatant was transferred to a 384 well plate. AMP level in supernatant was measured indirectly by adding 5 μL of CellTiter-Glo® 2.0 reagent and 5 μL of ATP with a final concentration of 1 μM. Following incubation of plate at room temperature for 30 minutes, luminescent signal was read on a Tecan plate reader. The percentage inhibition at individual concentrations relative to high and low controls was calculated. The data were analyzed by using nonlinear regression to generate ICso values.

Experiment [1] addresses T2, Human CD73 (amino acid residues 27-549) (Homo sapiens, UniProt P21589).
T2 construct: Human CD73 (amino acid residues 27-549); His tag (N); made in house; host or cells: E. coli
T2 sequence (P21589 27-549): T1 sequence (P21589 27-549)
The experiment in a line: CD73 enzymatic assay (luciferase-based indirect assay, CellTiter-Glo). Conditions: 0.4 nM CD73, 150 μM AMP, 1 hour at room temperature. Type of experiment: biochemical. Here is the method:
CD73 enzymatic activity was measured in a luciferase-based indirect assay using CellTiter-Glo® system from Promega. The luciferase reaction in the presence of ATP is inhibited by AMP, a primary substrate of CD73. Addition of CD73 enzyme to the reaction converts AMP to adenosine, and release the inhibition, producing a luminescent signal. Inhibition of CD73 leads to the decrease of this luminescent signal.
Human CD73 (amino acid residues 27-549) with N-Terminal His tag was purified in E. coli. All the assay components were prepared in 50 mM HEPEs buffer (pH 7.4) with 0.01% Tween-20. The CD73 enzymatic assay was performed using 0.4 nM CD73 and 150 μM AMP. 9.5 μL of CD73 protein and 9.5 μL of AMP were added to the wells of a 384 well plate containing lpL of various concentrations of test compound or DMSO vehicle and incubated for 1 hour at room temperature. 16 wells containing CD73, AMP and 5% DMSO served as high control. 16 wells containing AMP and 5% DMSO served as low control. Enzymatic reaction was stopped and AMP level was measured indirectly by adding 5 μL of CellTiter-Glo® 2.0 reagent and 5 μL of ATP with a final concentration of 1 μM. Following incubation of the plate at room temperature for 30 minutes, luminescent signal was read on a Tecan plate reader. The percentage inhibition at individual concentrations relative to high and low controls was calculated. The data were analyzed by using nonlinear regression to generate IC50 values.
Background: Cellular ATP, detected with luciferase, serves as a proxy for viable cell number.

For `O=c1[nH]ncc(N2CC[C@@H](Oc3cc(-c4cnn(C5CCNCC5)c4)ccn3)C2)c1Cl` [P-0002, (R)-4-chloro-5-(3-((4-(1-(piperidin-4-yl)-1H-pyrazol-4-yl)pyridin-2-yl)oxy)pyrrolidin-1-yl)pyridazin-3(2H)-one], the IC50 (on human CD73; in experiment [1]) was 0.001 to 10 µM each time.

Regarding `CC(C)N1CCN(c2ccnc(O[C@@H]3CCN(c4cn[nH]c(=O)c4Cl)C3)c2)CC1` [P-0003, (R)-4-chloro-5-(3-((4-(4-isopropylpiperazin-1-yl)pyridin-2-yl)oxy)pyrrolidin-1-yl)pyridazin-3(2H)-one], the IC50 (at human CD73; in experiment [1]) was 0.001 to 10 µM each time.

On to `CN1C2CCC1CN(c1ccnc(O[C@@H]3CCN(c4cn[nH]c(=O)c4Cl)C3)c1)C2` [P-0004, 4-chloro-5-((3R)-3-((4-(8-methyl-3,8-diazabicyclo[3.2.1]octan-3-yl)pyridin-2-yl)oxy)pyrrolidin-1-yl)pyridazin-3(2H)-one], for which the IC50 (at human CD73; in experiment [1]) was 0.001 to 10 µM each time.

`CC1(CN2CCC(c3ccnc(O[C@@H]4CCN(c5cn[nH]c(=O)c5Cl)C4)c3)CC2)COC1` [P-0005, (R)-4-chloro-5-(3-((4-(1-((3-methyloxetan-3-yl)methyl)piperidin-4-yl)pyridin-2-yl)oxy)pyrrolidin-1-yl)pyridazin-3(2H)-one]: the IC50 (on human CD73; in experiment [1]) was 0.001 to 10 µM in each case.

On to `Cc1nn(C(CO)CO)c(C)c1-c1cc(O[C@H]2CN(c3cnn(CCO)c(=O)c3Cl)C[C@@H]2F)ncc1F` [P-0006, 4-chloro-5-((3S,4S)-3-((4-(1-(1,3-dihydroxypropan-2-yl)-3,5-dimethyl-1H-pyrazol-4-yl)-5-fluoropyridin-2-yl)oxy)-4-fluoropyrrolidin-1-yl)-2-(2-hydroxyethyl)pyridazin-3(2H)-one], for which the IC50 (at human CD73; in experiment [1]) was 0.001 to 10 µM in each case.

Take `Cc1nn(C2COC2)c(C)c1-c1cc(O[C@H]2CN(c3cnn(CCO)c(=O)c3Cl)C[C@@H]2F)ncc1F` [P-0007, 4-chloro-5-((3S,4S)-3-((4-(3,5-dimethyl-1-(oxetan-3-yl)-1H-pyrazol-4-yl)-5-fluoropyridin-2-yl)oxy)-4-fluoropyrrolidin-1-yl)-2-(2-hydroxyethyl)pyridazin-3(2H)-one]: the IC50 (on human CD73; in experiment [1]) was 0.001 to 10 µM throughout.

As to `CN1CCC(c2ccnc(O[C@@H]3CCN(c4cn[nH]c(=O)c4Cl)C3)c2)CC1` [P-0008, (R)-4-chloro-5-(3-((4-(1-methylpiperidin-4-yl)pyridin-2-yl)oxy)pyrrolidin-1-yl)pyridazin-3(2H)-one], the IC50 (at human CD73; in experiment [1]) was 0.001 to 10 µM throughout.

As to `CC1CNCCC1c1ccnc(O[C@@H]2CCN(c3cn[nH]c(=O)c3Cl)C2)c1` (stereo partly drawn) [P-0009, 4-chloro-5-((3R)-3-((4-(3-methylpiperidin-4-yl)pyridin-2-yl)oxy)pyrrolidin-1-yl)pyridazin-3(2H)-one], the IC50 (at human CD73; in experiment [1]) was 0.001 to 10 µM in each case.

As for `CC(C)(O)CN1CCC(c2ccnc(O[C@@H]3CCN(c4cn[nH]c(=O)c4Cl)C3)c2)CC1` [P-0010, (R)-4-chloro-5-(3-((4-(1-(2-hydroxy-2-methylpropyl)piperidin-4-yl)pyridin-2-yl)oxy)pyrrolidin-1-yl)pyridazin-3(2H)-one], the IC50 (at human CD73; in experiment [1]) was 0.001 to 10 µM throughout.

Take `O=c1[nH]ncc(N2CC[C@@H](Oc3cc(C4CCN(CC(O)C(F)(F)F)CC4)ccn3)C2)c1Cl` (stereo partly drawn) [P-0011, 4-chloro-5-((3R)-3-((4-(1-(3,3,3-trifluoro-2-hydroxypropyl)piperidin-4-yl)pyridin-2-yl)oxy)pyrrolidin-1-yl)pyridazin-3(2H)-one]: the IC50 (on human CD73; in experiment [1]) was 0.001 to 10 µM throughout.

Turning to `O=c1[nH]ncc(N2CC[C@@H](Oc3cc(C4CC5CCC(C4)N5)ccn3)C2)c1Cl` (stereo partly drawn) [P-0012, 5-((3R)-3-((4-(8-azabicyclo[3.2.1]octan-3-yl)pyridin-2-yl)oxy)pyrrolidin-1-yl)-4-chloropyridazin-3(2H)-one], the IC50 (on human CD73; in experiment [1]) was 0.001 to 10 µM throughout.

As to `O=c1[nH]ncc(N2CC[C@@H](Oc3cc(N4CC5CCC(C4)N5)ccn3)C2)c1Cl` [P-0013, 5-((3R)-3-((4-(3,8-diazabicyclo[3.2.1]octan-3-yl)pyridin-2-yl)oxy)pyrrolidin-1-yl)-4-chloropyridazin-3(2H)-one], the IC50 (on human CD73; in experiment [1]) was 0.001 to 10 µM each time.

With `Cc1nn(CC(C)(C)O)c(C)c1-c1cc(O[C@@H]2CCN(c3cnn(CCO)c(=O)c3Cl)C2)ncn1` [P-0014, (R)-4-chloro-5-(3-((6-(1-(2-hydroxy-2-methylpropyl)-3,5-dimethyl-1H-pyrazol-4-yl)pyrimidin-4-yl)oxy)pyrrolidin-1-yl)-2-(2-hydroxyethyl)pyridazin-3(2H)-one], the IC50 (on human CD73; in experiment [1]) was 0.001 to 10 µM in each case.

For the molecule `Cc1nn(CC(C)(C)O)c(C)c1-c1ccnc(O[C@H]2CN(c3cnn(CCO)c(=O)c3Cl)C[C@@H]2F)c1` [P-0015, 4-chloro-5-((3S,4S)-3-fluoro-4-((4-(1-(2-hydroxy-2-methylpropyl)-3,5-dimethyl-1H-pyrazol-4-yl)pyridin-2-yl)oxy)pyrrolidin-1-yl)-2-(2-hydroxyethyl)pyridazin-3(2H)-one], the IC50 (on human CD73; in experiment [1]) was 0.001 to 10 µM in each case.

For `O=C(CO)N1CCC(c2ccnc(O[C@@H]3CCN(c4cn[nH]c(=O)c4Cl)C3)c2)CC1` [P-0016, (R)-4-chloro-5-(3-((4-(1-(2-hydroxyacetyl)piperidin-4-yl)pyridin-2-yl)oxy)pyrrolidin-1-yl)pyridazin-3(2H)-one], the IC50 (on human CD73; in experiment [1]) was 0.001 to 10 µM each time.

As for `Cc1nn(CC(C)(C)O)c(C)c1-c1ccnc(O[C@@H]2CCN(c3cnn(CCO)c(=O)c3Cl)C2)c1` [P-0017, (R)-4-chloro-5-(3-((4-(1-(2-hydroxy-2-methylpropyl)-3,5-dimethyl-1H-pyrazol-4-yl)pyridin-2-yl)oxy)pyrrolidin-1-yl)-2-(2-hydroxyethyl)pyridazin-3(2H)-one], the IC50 (on human CD73; in experiment [1]) was 0.001 to 10 µM in each case.

For the molecule `O=c1[nH]ncc(N2CC[C@@H](Oc3cc(C4CCNC4)ccn3)C2)c1Cl` (stereo partly drawn) [P-0018, 4-chloro-5-((3R)-3-((4-(pyrrolidin-3-yl)pyridin-2-yl)oxy)pyrrolidin-1-yl)pyridazin-3(2H)-one], the half-maximal inhibitory concentration (IC50) (on human CD73; in experiment [1]) was 0.001 to 10 µM in each case.

As for `Cc1nn(C2COC2)c(C)c1-c1cc(O[C@@H]2CCN(c3cnn(CCO)c(=O)c3Cl)C2)ncc1F` [P-0020, (R)-4-chloro-5-(3-((4-(3,5-dimethyl-1-(oxetan-3-yl)-1H-pyrazol-4-yl)-5-fluoropyridin-2-yl)oxy)pyrrolidin-1-yl)-2-(2-hydroxyethyl)pyridazin-3(2H)-one], the IC50 (at human CD73; in experiment [1]) was 0.001 to 10 µM in each case.
